Measurements from PMC4800267 (Assay and Drug Development Technologies, 2016).
Several values for one entry are separate records, joined by “and”; a condition that tells them apart may be missing. Equal values may be shown once. Entries after “also recorded” stand apart in the source; their conditions may differ. Read-outs that look alike come from different tables or passages of the source.

Key:
Nav1.1 = settings: read-out: IC50 Nav1.1; cited from earlier work
Nav1.3 = settings: read-out: IC50 Nav1.3; cited from earlier work
rat Nav1.7 = settings: cited from earlier work
mNav1.6 = mNav1.6 in Xenopus oocytes; cited from earlier work
[1] = tested on: endogenous TTX-S currents in ND7-23 cells; assay: cells; type: cell-based, rodent; settings: for effect on resting- or inactivated-state TTX-S currents: 300 nM
hNav1.5 = hNav1.5 on QPatch; cited from earlier work
rNav1.4 = rNav1.4 in Xenopus oocytes; cited from earlier work
hNav1.7 = hNav1.7 (Homo sapiens, UniProt Q15858); settings: hNav1.7 in Xenopus oocytes; cited from earlier work
hNav1.3 = hNav1.3 (Homo sapiens, UniProt Q9NY46); type: cell-based; settings: inactivated-state Peak 2
Sequence of hNav1.3 (Q9NY46 whole entry): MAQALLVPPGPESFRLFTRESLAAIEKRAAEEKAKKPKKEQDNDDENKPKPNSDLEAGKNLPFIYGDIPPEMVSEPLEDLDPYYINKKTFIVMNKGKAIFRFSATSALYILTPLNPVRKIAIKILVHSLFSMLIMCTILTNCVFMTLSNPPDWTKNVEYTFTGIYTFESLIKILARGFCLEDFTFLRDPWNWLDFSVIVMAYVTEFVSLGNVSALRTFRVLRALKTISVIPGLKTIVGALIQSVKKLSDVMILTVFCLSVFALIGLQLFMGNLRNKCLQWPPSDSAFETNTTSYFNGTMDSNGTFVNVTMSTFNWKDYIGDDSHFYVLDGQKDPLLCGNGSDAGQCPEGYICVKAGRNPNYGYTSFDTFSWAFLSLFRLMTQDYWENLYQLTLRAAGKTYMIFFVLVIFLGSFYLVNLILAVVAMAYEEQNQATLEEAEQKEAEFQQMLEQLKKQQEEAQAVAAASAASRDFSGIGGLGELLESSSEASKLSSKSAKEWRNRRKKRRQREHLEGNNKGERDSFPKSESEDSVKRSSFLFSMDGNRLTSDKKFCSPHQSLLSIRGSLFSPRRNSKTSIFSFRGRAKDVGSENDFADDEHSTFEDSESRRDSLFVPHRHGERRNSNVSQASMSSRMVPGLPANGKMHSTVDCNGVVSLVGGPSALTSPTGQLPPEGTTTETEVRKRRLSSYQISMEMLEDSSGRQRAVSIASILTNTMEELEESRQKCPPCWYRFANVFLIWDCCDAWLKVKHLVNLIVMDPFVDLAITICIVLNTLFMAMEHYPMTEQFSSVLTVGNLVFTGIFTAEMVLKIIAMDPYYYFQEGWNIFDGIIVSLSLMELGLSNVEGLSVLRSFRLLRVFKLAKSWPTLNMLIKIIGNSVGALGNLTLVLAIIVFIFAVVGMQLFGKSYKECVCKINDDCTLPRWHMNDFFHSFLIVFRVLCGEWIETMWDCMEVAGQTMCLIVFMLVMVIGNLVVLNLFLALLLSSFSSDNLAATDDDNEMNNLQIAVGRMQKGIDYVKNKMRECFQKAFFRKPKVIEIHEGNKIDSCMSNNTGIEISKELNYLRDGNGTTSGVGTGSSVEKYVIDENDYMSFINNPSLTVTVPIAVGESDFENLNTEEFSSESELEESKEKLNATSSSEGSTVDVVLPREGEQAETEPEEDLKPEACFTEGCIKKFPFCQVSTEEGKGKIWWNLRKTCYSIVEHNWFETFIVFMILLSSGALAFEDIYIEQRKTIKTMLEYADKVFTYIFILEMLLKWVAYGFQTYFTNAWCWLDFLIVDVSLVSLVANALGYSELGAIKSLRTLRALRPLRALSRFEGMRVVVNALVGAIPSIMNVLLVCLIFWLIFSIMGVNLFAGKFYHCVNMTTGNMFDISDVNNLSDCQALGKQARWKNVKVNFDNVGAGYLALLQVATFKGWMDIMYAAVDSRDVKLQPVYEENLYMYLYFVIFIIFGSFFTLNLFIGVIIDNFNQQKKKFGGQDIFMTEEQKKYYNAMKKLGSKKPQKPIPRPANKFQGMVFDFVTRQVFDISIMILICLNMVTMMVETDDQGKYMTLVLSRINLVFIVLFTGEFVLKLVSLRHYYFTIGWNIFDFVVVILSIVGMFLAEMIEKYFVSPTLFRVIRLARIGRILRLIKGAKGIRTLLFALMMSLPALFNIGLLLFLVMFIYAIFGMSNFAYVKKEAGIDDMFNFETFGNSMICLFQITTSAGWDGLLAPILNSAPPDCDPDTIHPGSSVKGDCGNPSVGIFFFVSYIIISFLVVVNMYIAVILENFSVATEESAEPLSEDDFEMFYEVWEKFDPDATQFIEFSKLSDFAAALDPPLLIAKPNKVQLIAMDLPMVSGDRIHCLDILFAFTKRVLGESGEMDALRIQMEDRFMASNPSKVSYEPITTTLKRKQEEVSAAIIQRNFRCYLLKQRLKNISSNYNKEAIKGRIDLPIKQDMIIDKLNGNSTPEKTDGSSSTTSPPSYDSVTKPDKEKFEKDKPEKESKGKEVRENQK

Sequence of hNav1.7 (Q15858 whole entry): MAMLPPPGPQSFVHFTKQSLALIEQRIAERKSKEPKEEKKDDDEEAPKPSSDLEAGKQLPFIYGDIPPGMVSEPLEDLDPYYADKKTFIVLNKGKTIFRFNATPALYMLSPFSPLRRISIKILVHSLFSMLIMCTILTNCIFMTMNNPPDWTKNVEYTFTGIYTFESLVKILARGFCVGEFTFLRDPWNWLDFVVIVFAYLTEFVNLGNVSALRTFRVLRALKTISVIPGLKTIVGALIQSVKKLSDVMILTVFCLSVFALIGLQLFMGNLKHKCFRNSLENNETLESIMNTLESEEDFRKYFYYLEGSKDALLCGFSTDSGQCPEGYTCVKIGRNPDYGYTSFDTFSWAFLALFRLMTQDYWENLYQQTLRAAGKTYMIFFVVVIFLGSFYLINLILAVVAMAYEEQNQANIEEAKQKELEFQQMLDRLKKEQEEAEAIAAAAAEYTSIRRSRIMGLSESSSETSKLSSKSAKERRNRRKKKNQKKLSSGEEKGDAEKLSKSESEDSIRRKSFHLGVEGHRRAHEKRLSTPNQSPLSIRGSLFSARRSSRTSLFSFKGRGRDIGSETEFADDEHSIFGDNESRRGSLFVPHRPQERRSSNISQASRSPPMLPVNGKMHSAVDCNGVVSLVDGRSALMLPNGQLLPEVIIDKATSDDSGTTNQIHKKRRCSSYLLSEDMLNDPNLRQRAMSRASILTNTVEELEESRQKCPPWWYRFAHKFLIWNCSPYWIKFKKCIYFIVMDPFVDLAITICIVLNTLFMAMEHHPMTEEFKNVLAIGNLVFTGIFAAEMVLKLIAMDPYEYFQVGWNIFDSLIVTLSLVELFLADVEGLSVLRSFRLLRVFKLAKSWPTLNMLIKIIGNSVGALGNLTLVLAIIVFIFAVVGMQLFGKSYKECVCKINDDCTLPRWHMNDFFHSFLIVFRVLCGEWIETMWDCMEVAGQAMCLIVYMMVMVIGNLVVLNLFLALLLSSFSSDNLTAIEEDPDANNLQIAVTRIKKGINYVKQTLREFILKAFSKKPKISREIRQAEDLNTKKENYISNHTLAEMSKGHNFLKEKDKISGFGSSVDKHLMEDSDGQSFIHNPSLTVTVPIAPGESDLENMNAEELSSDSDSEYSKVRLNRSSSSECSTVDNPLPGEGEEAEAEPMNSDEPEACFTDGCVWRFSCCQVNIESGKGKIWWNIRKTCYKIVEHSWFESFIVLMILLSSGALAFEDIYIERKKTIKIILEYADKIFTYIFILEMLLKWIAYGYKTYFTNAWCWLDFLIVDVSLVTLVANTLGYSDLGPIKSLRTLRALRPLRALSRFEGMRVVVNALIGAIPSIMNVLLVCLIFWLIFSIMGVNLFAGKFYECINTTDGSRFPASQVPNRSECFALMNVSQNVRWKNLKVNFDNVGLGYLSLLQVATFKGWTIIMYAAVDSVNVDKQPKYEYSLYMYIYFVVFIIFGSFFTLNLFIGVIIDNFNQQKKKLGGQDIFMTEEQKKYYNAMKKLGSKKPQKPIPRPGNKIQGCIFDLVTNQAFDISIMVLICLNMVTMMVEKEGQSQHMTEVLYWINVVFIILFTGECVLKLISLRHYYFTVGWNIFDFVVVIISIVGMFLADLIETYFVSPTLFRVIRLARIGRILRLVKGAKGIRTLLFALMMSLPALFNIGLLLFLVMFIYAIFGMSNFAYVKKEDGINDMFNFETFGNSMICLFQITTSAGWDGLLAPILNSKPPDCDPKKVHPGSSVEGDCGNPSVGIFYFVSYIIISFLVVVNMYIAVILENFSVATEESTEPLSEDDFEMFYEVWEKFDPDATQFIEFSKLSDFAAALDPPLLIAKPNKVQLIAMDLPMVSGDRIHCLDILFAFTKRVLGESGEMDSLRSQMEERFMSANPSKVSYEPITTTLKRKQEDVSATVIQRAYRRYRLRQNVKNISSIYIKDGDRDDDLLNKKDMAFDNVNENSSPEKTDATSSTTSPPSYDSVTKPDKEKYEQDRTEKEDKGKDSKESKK

Structure (SMILES)	IC50 (Nav1.1)	IC50 (Nav1.3)	potency against rat Nav1.7 channels (rat Nav1.7)	effects on resting or inactivated current amplitudes (mNav1.6)	effect on resting- or inactivated-state TTX-S currents [1]	effect on resting- or inactivated-state TTX-S currents ([1]; listed as Icagen Nav1.3 antagonist)	reduction of resting-state Peak 1 TTX-S current ([1]; 1 μM, Peak 1, mean ± SEM)	reduction of inactivated Peak 2 TTX-S current ([1]; 1 μM, Peak 2, mean ± SEM)	inhibition at 0.3 µM ([1]; ND7/23, read-out: ND7-23 TTX-S % Inhibition, Peak 1)	inhibition at 0.3 µM ([1]; ND7/23, read-out: ND7-23 TTX-S % Inhibition, Peak 2)	IC50 ([1]; ND7/23, read-out: ND7-23 TTX-S IC50, Peak 1)	IC50 ([1]; ND7/23, read-out: ND7-23 TTX-S IC50, Peak 2)	inhibition at 0.3 µM ([1]; ND7/23, read-out: inhibition of inward TTX-S currents)	inhibition of TTX-S currents, maximum over all concentrations tested ([1]; all test concentrations)	effects on resting or inactivated current amplitudes (hNav1.5)	effects on resting or inactivated current amplitudes (rNav1.4)	effects on resting or inactivated current amplitudes (hNav1.7)	hillslope, Peak 2 (hNav1.3)
O=C(Nc1ccc(S(=O)(=O)Nc2nccs2)cc1)C(c1ccccc1)c1ccccc1 [ICA-121431]	~20 nM	~20 nM	low nanomolar potency	–	–	–	–	–	–	–	–	–	–	–	–	–	–	–
O=C(Nc1ccc(S(=O)(=O)Nc2nccs2)cc1)[C@@H]1C[C@H]1c1ccccc1 [Icagen compound 68, (1R,2R)-2-phenyl-N-(4-(N-(thiazol-2-yl)sulfamoyl)phenyl)cyclopropane-1-carboxamide]	–	–	–	no significant effects	no effect; also recorded: negligible effects	no significant effect	0.7% ± 3.0%	8.5% ± 1.7% and 8.5%	0.8%	-0.5%	> 10000 nM	> 10000 nM	~0.5%	< 50%	no significant effects	no significant effects	no significant effects	1.2
